According to patent US20210330611A1, “THERAPY FOR NEUROLOGICAL DISEASES/DISORDERS” (priority 2020, published 2021):
Where two headings read alike, the source gives them in different places.

Legend:
primary rat microglia [1] = conditions: rat
primary rat microglia [2] = assay: Cell toxicity (dead cells, size <150 μm2) in coated fibrin (cFib) assay; conditions: primary microglia HTS;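 note: share of dead cells sized under 150 µm2 at 10 µM in fibrin-stimulated microglia HTS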
[3] = system: fibrin- and LPS-induced microglia activation; assay: cells; type: cell-based, rat
[4] = system: fibrin-induced microglia activation; assay: Image-based assay of fibrin-induced microglia activation (HTS and dose response); type: cell-based, rat; conditions: primary microglia HTS, fibrin stimulation; for inhibition at 10 µM: Rattus norvegicus, Microglia, read-out: Fibrin % inhibition
[5] = system: LPS-induced microglia activation; assay: Image-based assay of LPS-induced microglia activation (HTS and dose response); type: cell-based, rat; conditions: Rattus norvegicus, Microglia, read-out: LPS % inhibition
[6] = fibrin stimulation, cell size <150 μm2 as marker of toxicity
[7] = classification by fibrin and LPS inhibition in HTS
[8] = cell size >800 μm2 as marker of activation
[9] = fibrin assay, dead cells (size <150 μm2), compounds at 10 μM
[10] = classification by fibrin and LPS inhibition, HTS at 10 μM
[11] = primary microglia HTS, LPS stimulation, compounds at 10 μM
[12] = fibrin assay, dead cells (size <150 μm2)
[13] = quadrant by fibrin and LPS inhibition, HTS at 10 μM

| Structure (SMILES) | LPS % cell toxicity (primary rat microglia [1]) [%] | Fibrin % cell toxicity (primary rat microglia [2]; [6]) [%] | Quadrant (FIG. 5b) [3, 7] | inhibition at 10 µM [4, 8] [%] | inhibition at 10 µM ([5]; 48 h) [%] | Fibrin % cell toxicity (primary rat microglia [2]; [9]) [%] | Quadrant (FIG. 5b) [3, 10] | inhibition at 10 µM ([4]; compounds at 10 μM) [%] | inhibition at 10 µM [5, 11] [%] | Fibrin % cell toxicity (primary rat microglia [2]; [12]) [%] | Quadrant (FIG. 5b) [3, 13] | Fibrin % inhibition [4, 8] [%] |
| --- | --- | --- | --- | --- | --- | --- | --- | --- | --- | --- | --- | --- |
| CCCN(CCC)C(=O)C(CCC(=O)O)NC(=O)c1ccccc1 (centres unmarked) [Proglumide] | 0 | 1 | Q4 | -4 | -1 |  |  |  |  |  |  |  |
| CCCCC(=O)O[C@H]1CC[C@H]2[C@@H]3CCc4cc(O)ccc4[C@H]3CC[C@]12C [Estradiol Valerate] | 1 |  |  |  |  | 1 | Q4 | -8 | 16 |  |  |  |
| COc1ccc(C(=O)c2ccccc2O)c(O)c1 [Dioxybenzone] | 0 |  |  |  |  | 1 | Q4 | -4 | 16 |  |  |  |
| COC(=O)N[C@H](C(=O)N[C@@H](Cc1ccccc1)[C@@H](O)CN(Cc1ccc(-c2ccccn2)cc1)NC(=O)[C@@H](NC(=O)OC)C(C)(C)C)C(C)(C)C [Atazanavir] | 1 |  |  |  |  |  |  | -17 | 13 | 0 | Q4 |  |
| CCCCCCCCCCCCCCOS(=O)(=O)[O-].[Na+] [Sodium Tetradecyl Sulfate] | 0 | 1 | Q4 | -5 | 13 |  |  |  |  |  |  |  |
| CC(C)(Sc1cc(C(C)(C)C)c(O)c(C(C)(C)C)c1)Sc1cc(C(C)(C)C)c(O)c(C(C)(C)C)c1 [Probucol] | 0 | 0 | Q4 | 12 | -1 |  |  |  |  |  |  |  |
| CCCCCCCCCCOc1cc2c(O)c(C(=O)OCC)cnc2cc1OCC [Decoquinate] | 1 |  |  |  |  | 1 | Q4 | 7 | 20 |  |  |  |
| CC(CN1c2ccccc2Sc2ccccc21)N(C)C (centres unmarked) [Promethazine] | 0 | 0 | Q4 | -30 | 5 |  |  |  |  |  |  |  |
| Cc1onc(-c2c(Cl)cccc2Cl)c1C(=O)N[C@@H]1C(=O)N2[C@@H]1SC(C)(C)[C@@H]2C(=O)O [Dicloxacillin] | 0 |  |  |  |  | 0 | Q4 | -23 | 14 |  |  |  |
| Cc1cc(=O)n(-c2ccccc2)n1C [Antipyrine] | 1 |  |  |  |  |  |  | -8 | 13 | 0 | Q4 |  |
| Cc1ccc(/N=C/N(C)/C=N/c2ccc(C)cc2C)c(C)c1 [Amitraz] | 0 |  |  |  |  |  |  | -18 | 9 | 0 | Q4 |  |
| OCC(O)CN1CCN(c2ccccc2)CC1 (centres unmarked) [Dropropizine] | 0 |  |  |  |  | 1 | Q4 | -26 | 11 |  |  |  |
| Nc1ccncc1 [Dalfampridine] | 0 |  |  |  |  | 2 | Q4 | 8 | 2 |  |  |  |
| Nc1ncnc2nc[nH]c12 [Adenine] | 1 |  |  |  |  |  |  | -7 | 22 | 1 | Q4 |  |
| CC(=O)NO [Acetohydroxamic Acid] | 0 |  |  |  |  |  |  | -3 | 12 | 0 | Q4 |  |
| CCOc1ccccc1C(N)=O [Ethenzamide] | 0 |  |  |  |  | 1 | Q4 | -15 | 5 |  |  |  |
| CC(=O)Oc1cccc(O)c1 [Resorcinol Monoacetate] | 1 | 1 | Q4 | 12 | 26 |  |  |  |  |  |  |  |
| CC[C@H](C)C(=O)O[C@H]1C[C@H](O)C=C2C=C[C@H](C)[C@H](CC[C@@H](O)C[C@@H](O)CC(=O)O)[C@H]21 [Pravastatin] | 0 | 1 | Q4 |  | 10 |  |  |  |  |  |  | 10 |
| c1ccc2c(c1)Nc1ccccc1S2 [Phenothiazine] | 1 | 0 | Q4 | -84 | 24 |  |  |  |  |  |  |  |
